In patent US9074014B2 (Ipsen Pharma S.A.S., priority 2008, dated 2015):
Where a SMILES comes first, the peptide text is derived from it. Where no end group is shown, it is not given here. [ ]: non-standard residue; d: D form. The star is where a group is joined. Myristoyl = CCCCCCCCCCCCCC(=O)*; Pip = O=C(O)[C@@H]1CCCCN1; Ac6c = NC1(C(=O)O)CCCCC1; Nle = CCCC[C@H](N)C(=O)O; Orn = NCCC[C@H](N)C(=O)O; X1 = CCCN1C(=O)CC(*)C1=O; Ac5c = NC1(C(=O)O)CCCC1; Aib = CC(C)(N)C(=O)O

Experiments:
[1] = Human plasma half-life assay; type: in vitro ADME
[2] = Rat plasma half-life assay; type: in vitro ADME; design: half-life: dose or concentration left out as unconfirmed; settings: for half-life at 0.1 mg/ml: read-out: Rat Plasma T½ (converted)
[3] = human plasma, 37° C., LC-MS, read-out: Human Plasma T½ (converted)

| Compound | half-life at 0.1 mg/ml [1, 3] | half-life at 0.1 mg/ml ([2]; rat plasma, 37° C., LC-MS) | other results |
| --- | --- | --- | --- |
| CC[C@H](C)[C@H](NC(=O)[C@H](CO)NC(=O)[C@H](Cc1ccc(O)cc1)NC(=O)[C@H](CC(=O)O)NC(=O)[C@H](CO)NC(=O)C1(NC(=O)[C@H](Cc2ccccc2)NC(=O)[C@@H](NC(=O)CNC(=O)[C@H](CCC(=O)O)NC(=O)C(C)(C)NC(=O)[C@@H](N)Cc2ccc(O)cc2)[C@@H](C)O)CCCCC1)C(=O)N[C@@H](C)C(=O)NC1(C(=O)N[C@@H](CC(=O)O)C(=O)N[C@@H](CCCCN)C(=O)N[C@H](C(=O)N[C@@H](Cc2c[nH]cn2)C(=O)N[C@@H](CCC(N)=O)C(=O)N[C@@H](CCC(N)=O)C(=O)N[C@@H](CC(=O)O)C(=O)N[C@@H](Cc2ccccc2)C(=O)N[C@H](C(=O)N[C@@H](CC(N)=O)C(=O)N[C@@H](Cc2c[nH]c3ccccc23)C(=O)N[C@@H](CC(C)C)C(=O)N[C@@H](CC(C)C)C(=O)N[C@@H](C)C(=O)N[C@@H](CCC(N)=O)C(=O)N[C@@H](CCCCN)C(=O)NCC(=O)N[C@@H](CCCCN)C(=O)N[C@@H](CCCCN)C(=O)N[C@@H](CC(N)=O)C(=O)N[C@@H](CC(=O)O)C(=O)N[C@@H](Cc2c[nH]c3ccccc23)C(=O)N[C@@H](CCCCN)C(=O)N[C@@H](Cc2c[nH]cn2)C(=O)N[C@@H](CC(N)=O)C(=O)N[C@H](C(=O)N[C@H](C(=O)N[C@@H](CCC(N)=O)C(=O)O)[C@@H](C)O)[C@@H](C)CC)C(C)C)[C@@H](C)CC)CCCCC1 [Example 51, (Aib^2, A6c^7, 14)hGIP(1-42)-OH] | 33.8 h | 12.7 h |  |
| [Orn](Myristoyl)AEGTF[Ac6c]SDYSIAMDKIHQQDFVNWLLAQKGKKNDWKHNITQ-OH [Example 103, [Orn^1(N—C(O)—(CH2)12—CH3), A6c^7]hGIP(1-42)-OH] |  |  | half-life [1, 3]: 6.8 h; half-life ([2]; rat plasma, 37° C., LC-MS, read-out: Rat Plasma T½): > 72 h |
| CCCC[C@H](NC(=O)[C@H](C)NC(=O)[C@@H](NC(=O)[C@H](CO)NC(=O)[C@H](Cc1ccc(O)cc1)NC(=O)[C@H](CC(=O)O)NC(=O)[C@H](CO)NC(=O)C1(NC(=O)[C@H](Cc2ccccc2)NC(=O)[C@@H](NC(=O)CNC(=O)[C@H](CCC(=O)O)NC(=O)C(C)(C)NC(=O)[C@@H](N)Cc2ccc(O)cc2)[C@@H](C)O)CCCCC1)[C@@H](C)CC)C(=O)N[C@@H](CC(=O)O)C(=O)N[C@@H](CCCCN)C(=O)N[C@H](C(=O)N[C@@H](Cc1c[nH]cn1)C(=O)N[C@@H](CCC(N)=O)C(=O)N[C@@H](CCC(N)=O)C(=O)N[C@@H](CC(=O)O)C(=O)N[C@@H](Cc1ccccc1)C(=O)N[C@H](C(=O)N[C@@H](CC(N)=O)C(=O)N[C@@H](Cc1c[nH]c2ccccc12)C(=O)N[C@@H](CC(C)C)C(=O)N[C@@H](CC(C)C)C(=O)N[C@@H](C)C(=O)N[C@@H](CCC(N)=O)C(=O)N[C@@H](CCCCN)C(N)=O)C(C)C)[C@@H](C)CC [Example 31, (Aib^2, A6c^7, Nle^14)hGIP(1-30)-NH2] (H-Y[Aib]EGTF[Ac6c]SDYSIA[Nle]DKIHQQDFVNWLLAQK-NH2; N-terminus assumed) | 36.5 h | 31.4 h |  |
| H-YAPGTFISDYSIAMDKIHQQDFVNWLLAQKGKKNDWKHNITQ-OH [[Pro^3]hGIP(1-42)-OH, reference compound] |  |  | half-life at 0.1 mg/ml ([1]; human, plasma, same experimental conditions as Table 2, read-out: human plasma half-life (converted)): 10.8 h; half-life ([2]; rat, plasma, same experimental conditions as Table 2, read-out: rat plasma half-life (converted)): 0.8 h |
| Y[Aib]EGTF[Ac6c]SDYSIAMDKIHQQDFVNWLLAQKGKKNC(X1)WKHNITQ-OH [Example 85, [Aib^2, A6c^7, Cys(Psu)^35]hGIP(1-42)-OH] | 7.3 h | 3.5 h |  |
| Y[Aib]EGTF[Ac6c]SDYSIAMDKIHQQDFVNWLLAQKGKKNDWKC(X1)NITQ-OH [Example 80, [Aib^2, A6c^7, Cys(Psu)^38]hGIP(1-42)-OH] | > 54 h | 5.5 h |  |
| CCCC[C@H](NC(=O)[C@H](C)NC(=O)[C@@H](NC(=O)C(C)(C)NC(=O)[C@H](Cc1ccc(O)cc1)NC(=O)[C@H](CC(=O)O)NC(=O)[C@H](CO)NC(=O)[C@@H](NC(=O)[C@H](Cc1ccccc1)NC(=O)[C@@H](NC(=O)CNC(=O)[C@H](CCC(=O)O)NC(=O)C(C)(C)NC(=O)[C@@H](N)Cc1ccc(O)cc1)[C@@H](C)O)[C@@H](C)CC)[C@@H](C)CC)C(=O)N[C@@H](CC(=O)O)C(=O)N[C@@H](CCCCN)C(=O)N[C@H](C(=O)N[C@@H](Cc1c[nH]cn1)C(=O)N[C@@H](CCC(N)=O)C(=O)N[C@@H](CCC(N)=O)C(=O)N[C@@H](CC(=O)O)C(=O)N[C@@H](Cc1ccccc1)C(=O)N[C@H](C(=O)N[C@@H](CC(N)=O)C(=O)N[C@@H](Cc1c[nH]c2ccccc12)C(=O)N[C@@H](CC(C)C)C(=O)N[C@@H](CC(C)C)C(=O)N[C@@H](C)C(=O)N[C@@H](CCC(N)=O)C(=O)N[C@@H](CCCCN)C(N)=O)C(C)C)[C@@H](C)CC [Example 33, (Aib^2, 11, Nle^14)hGIP(1-30)-NH2] (H-Y[Aib]EGTFISDY[Aib]IA[Nle]DKIHQQDFVNWLLAQK-NH2; N-terminus assumed) | > 48 h | 34 h |  |
| Y[Aib]EGTFISDY[Ac5c]IA[Ac6c]DKIHQQDFVNWLLAQKGKKNDWKHNITQ-OH [Example 61, (Aib^2, A5c^11, A6c^14)hGIP(1-42)-OH] | > 48 h | 45.3 h |  |
| Y[Aib]EGTF[Ac6c]SDYSIA[Nle]DKIHQQDFVNWL[Ac6c]AQKGKKNDWKHNITQ-OH [Example 27, (Aib^2, A6c^7, 27, Nle^14)hGIP(1-42)-OH] | > 48 h | 9.3 h |  |
| YA[Pip]GTFISDYSI[Aib]MDKIHQQDFVNWLLAQKGKKNDWKHNITQ [Example 65, (hPro^3, Aib^13)hGIP(1-42)-OH] | 14.3 h | 1.5 h |  |
| Y[Aib]EGTF[Ac5c]SDYSIA[Ac6c]DKIHQQDFVNWLLAQKGKKNDWKHNITQ-OH [Example 44, (Aib^2, A5c^7, A6c^14)hGIP(1-42)-OH] | 9.5 h | 7.5 h |  |
| Y[Aib]EGTFISDYS[Aib]AMDKIHQQDFVNWLLAQKGKKNDWKHNITQ-OH [Example 8, (Aib^2, 12)hGIP(1-42)-OH] | > 48 h | 4.5 h |  |
| Y[Aib]EGTF[Ac6c]SDYSIAMDKIHQQDFVNWLLAQK[Aib]KKNDWKHNITQ-OH [Example 22, (Aib^2, 31, A6c^7)hGIP(1-42)-OH] | > 48 h | 14.2 h |  |
| CC[C@H](C)[C@H](NC(=O)[C@H](CO)NC(=O)[C@H](Cc1ccc(O)cc1)NC(=O)[C@H](CC(=O)O)NC(=O)[C@H](CO)NC(=O)[C@@H](NC(=O)[C@H](Cc1ccccc1)NC(=O)[C@@H](NC(=O)CNC(=O)[C@@H]1Cc2ccccc2CN1C(=O)[C@H](C)NC(=O)[C@@H](N)Cc1ccc(O)cc1)[C@@H](C)O)[C@@H](C)CC)C(=O)N[C@@H](C)C(=O)NC1(C(=O)N[C@@H](CC(=O)O)C(=O)N[C@@H](CCCCN)C(=O)N[C@H](C(=O)N[C@@H](Cc2c[nH]cn2)C(=O)N[C@@H](CCC(N)=O)C(=O)N[C@@H](CCC(N)=O)C(=O)N[C@@H](CC(=O)O)C(=O)N[C@@H](Cc2ccccc2)C(=O)N[C@H](C(=O)N[C@@H](CC(N)=O)C(=O)N[C@@H](Cc2c[nH]c3ccccc23)C(=O)N[C@@H](CC(C)C)C(=O)N[C@@H](CC(C)C)C(=O)N[C@@H](C)C(=O)N[C@@H](CCC(N)=O)C(=O)N[C@@H](CCCCN)C(=O)NCC(=O)N[C@@H](CCCCN)C(=O)N[C@@H](CCCCN)C(=O)N[C@@H](CC(N)=O)C(=O)N[C@@H](CC(=O)O)C(=O)N[C@@H](Cc2c[nH]c3ccccc23)C(=O)N[C@@H](CCCCN)C(=O)N[C@@H](Cc2c[nH]cn2)C(=O)N[C@@H](CC(N)=O)C(=O)N[C@H](C(=O)N[C@H](C(=O)N[C@@H](CCC(N)=O)C(=O)O)[C@@H](C)O)[C@@H](C)CC)C(C)C)[C@@H](C)CC)CCCCC1 [Example 71, (Tic^3, A6c^14)hGIP(1-42)-OH] | > 31 h | 4.8 h |  |
